Test results from PMC8975272, “Novel glucagon-like peptide-1 analogue exhibits potency-driven G-protein biased agonism with promising effects on diabetes and diabetic dry eye syndrome” (Bioengineered, 2022).

Tests used:
[1] = target: T1, GLP-1R (Homo sapiens, UniProt P43220); test: GLP-1R endocytosis, high content imaging; format: cell-based; design: expressed in transfected cells; conditions: no clear difference in kinetics between the two ligands
[2] = target: T1, GLP-1R; test: cAMP accumulation (HTRF); format: cell-based; design: expressed in transfected cells
Procedure: (§1) HEK293 cells stably expressing human GLP-1R (hGLP-1 R) (generated in-house using HEK293 cell line purchased from ATCC, Cat# CRL-1573) were maintained in Dulbecco’s Modified Eagle Medium (DMEM, Gibco, 11,054,020) with 10% fetal bovine serum (FBS, Gibco, 10,099,133 C), 1% penicillin/streptomycin (Gibco, 10,378,016) and 1 mg/mL G418 (Gibco, 10,131,035). Wild-type INS-1 832/3 cells, or INS-1 832/3 cells lacking endogenous GLP-1 R (generated in-house using INS-1 832/3 cell line purchased from NTCC, Cat# CVCL_ZL55) were maintained in RPMI-1640 (Gibco, 22,400,071) with 1 mM sodium pyruvate (Gibco, 11,360,070), 50 μM β-mercaptoethanol (Gibco, 21,985,023), 10% FBS, and 1% penicillin/streptomycin. PathHunter CHO-K1-βarr2-EAGLP1R cells (DiscoverX) were maintained in F12 medium (Gibco, 11,320,033) with 10% FBS, 1% penicillin/streptomycin, 1 mg/mL G418 and 250 μg/mL hygromycin (Gibco, 10,687,010).
HEK293 stably expressing hGLP-1 R cells were stimulated with agonist for 30 min at 37°C in serum-free medium (Gibco, 12,753,018). cAMP was determined at the end of the incubation period by homogenous time resolved fluorescence (HTRF; cAMP Dynamic 2 kit, Cisbio) using a Molecular Devices iD5 plate reader.

[3] = target: T1, GLP-1R; test: PathHunter β-arrestin-2 recruitment; format: cell-based; design: host or cells: CHO-K1 (PathHunter); conditions: SM102 vs Semaglutide; 30 min at 37°C, luminescence
Procedure: as §1
PathHunter CHO-K1-βarr2-EA-GLP-1 R cells were stimulated with agonist for 30 min at 37°C in Ham’s F12 medium (Gibco, 11,765,054) without FBS. At the end of the incubation period cells were lysed by addition of PathHunter detection reagents and luminescent signal was subsequently recorded from each well.

[4] = tested on: diabetic DES mice; test: Chronic administration study in diabetic DES mice; format: in vivo, mouse; conditions: for increase in number of conjunctival goblet cells vs control mice: PAS staining
Procedure: DES in db/db mice was induced by twice daily administration of 5 μL of 0.2% benzalkonium chloride (Sigma-Aldrich) for 7 days. All diabetic DES mice were divided into vehicle group, SM102 treatment groups (1, 3 and 9 nmol/kg), Semaglutide treatment group (15 nmol/kg), and dulaglutide (1.5 nmol/kg) (n = 8 per group; 4 male, 4 female). The drugs were injected subcutaneously into the neck region of the animals on every other day for 4 weeks.
The mouse’s lower eyelid was gently pulled downward, and a line with a 1 mm length of the phenol red cotton thread was placed on the upper part of the palpebral conjunctiva for 15 seconds near the inner part about one-third of the distance from the outer corner of the eyelid. The length of the colored part of the phenol red thread was recorded as the tear secretion. 1 μL of 0.1% liquid fluorescein sodium was instilled into the conjunctival sac followed by three blinks, and tear breakup time (BUT) was recorded in seconds.
[…] The levels of interleukin-6 (IL-6), interleukin-1β (IL-1β), tumor necrosis factor-α (TNF-α), transforming growth factor β1 (TGF-β1) and malondialdehyde (MDA) as well as superoxide dismutase (SOD) activity in the supernatant were measured using appropriate ELISA kits brought from R&D company (USA). The expression levels of p38/p-p38, JNK/pJNK and ERK/p-ERK were analyzed by Western blot methods as previously reported.
Hematoxylin and eosin (H&E) staining were performed as described below: Corneas were fixed in 4% formalin. After dehydration, the specimens were embedded in paraffin and serial sections of 6 μm thickness were cut and stained with a hematoxylin-eosin reagent. Periodic Acid–Schiff (PAS) staining were performed as described below: Conjunctiva was fixed in 4% formalin. After dehydration, the specimens were embedded in paraffin and serial sections of 6 μm thickness were cut and stained with 0.5% PAS staining. The number of positively stained cup-shaped cells in the stained conjunctival sections was counted using image-Pro Plus6.0 (MediaCybernetics, USA).

[5] = Pharmacokinetics in CD-1 mice; format: in vivo, mouse; conditions: mouse, plasma, sc; single subcutaneous injection, 1 mg/kg, male CD-1 mice
[6] = tested on: mouse pancreatic islets; test: Static acute insulin secretion, mouse islets; format: cell-based
Procedure: Mice were euthanized by cervical dislocation and pancreatic islets isolated by collagenase digestion as previously described and cultured in RPMI 1640 medium, 11 mM glucose, supplemented with 10% (v/v) FBS plus penicillin (100 units/mL), and streptomycin (0.1 mg/mL) at 37°C in an atmosphere of humidified air (95%) and CO2 (5%).
Mouse islets (10/well) were incubated in triplicate for each condition and treatment. […] The secretion medium was then collected to measure the insulin and proinsulin concentrations using an insulin HTRF kit (Cisbio Bioassays). INS-1 832/3 cells were treated with the indicated concentrations of SM102 or Semaglutide for 16 h in complete RPMI1640 medium at 11 mM glucose. A sample of supernatant was collected and analyzed for insulin content by HTRF.

[7] = target: T1, GLP-1R; test: GLP-1R binding affinity; design: expressed in transfected cells; conditions: compared to Semaglutide
[8] = target: T2, hGLP-1 R (Homo sapiens, UniProt P43220); test: GLP-1R recycling assay (exendin-4-TMR uptake); format: cell-based; conditions: 100 nM agonist 1 hour, washout, exendin-4-TMR 1 or 3 hours; compared to Semaglutide
T2 construct: expressed in transfected cells; host or cells: INS-1 832/3 (abstract: 832/13) rat insulinoma cells
Procedure: INS-1 hGLP-1 R cells were seeded the day before the assay in 96-well imaging plates. Cells were washed twice with PBS, then stimulated with 100 nM of respective agonist in complete media, with an equal number of wells kept as vehicles. Following stimulation of the cells for 1 hour, they were washed twice with PBS and labeled with exendin-4-TMR13 for either 1 hour or 3 hours, washed again with PBS, and imaged via high content microscopy.

[9] = all 3 doses of SM102, Western blot, p < 0.05
[10] = corneal homogenates, 4 weeks, ELISA

T1 sequence (P43220 24-463): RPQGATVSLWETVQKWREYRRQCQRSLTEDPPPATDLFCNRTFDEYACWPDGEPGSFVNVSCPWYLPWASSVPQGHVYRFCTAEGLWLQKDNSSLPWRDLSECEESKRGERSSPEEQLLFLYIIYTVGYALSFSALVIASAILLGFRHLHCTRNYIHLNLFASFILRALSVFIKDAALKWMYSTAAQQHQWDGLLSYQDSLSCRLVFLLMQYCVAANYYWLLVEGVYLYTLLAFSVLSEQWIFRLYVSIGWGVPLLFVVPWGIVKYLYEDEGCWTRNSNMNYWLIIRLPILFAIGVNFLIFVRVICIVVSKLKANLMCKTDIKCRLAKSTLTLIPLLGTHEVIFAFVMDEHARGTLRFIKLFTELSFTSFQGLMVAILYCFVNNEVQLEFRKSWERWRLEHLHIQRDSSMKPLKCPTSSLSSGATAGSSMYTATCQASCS
T2 sequence (P43220 24-463): as above

CC[C@H](C)[C@H](NC(=O)[C@H](Cc1ccccc1)NC(=O)[C@H](CCC(=O)O)NC(=O)[C@H](CCCCNC(=O)COCCOCCNC(=O)C(C)(C)NC(=O)CC[C@H](NC(=O)CCCCCCCCCCCCCCCCC(=O)O)C(=O)O)NC(=O)[C@H](C)NC(=O)[C@H](C)NC(=O)[C@H](CCC(N)=O)NC(=O)CNC(=O)[C@H](CCC(=O)O)NC(=O)[C@H](CC(C)C)NC(=O)[C@H](Cc1ccc(O)cc1)NC(=O)[C@H](CO)NC(=O)[C@H](CO)NC(=O)[C@@H](NC(=O)[C@H](CC(=O)O)NC(=O)[C@H](CO)NC(=O)[C@@H](NC(=O)[C@H](Cc1ccccc1)NC(=O)[C@@H](NC(=O)CNC(=O)[C@H](CCC(=O)O)NC(=O)C(C)(C)NC(=O)[C@@H](N)Cc1c[nH]cn1)[C@@H](C)O)[C@@H](C)O)C(C)C)C(=O)N[C@@H](C)C(=O)N[C@@H](Cc1c[nH]c2ccccc12)C(=O)N[C@@H](CC(C)C)C(=O)N[C@H](C(=O)N[C@@H](CCCNC(=N)N)C(=O)NCC(=O)N[C@@H](CCCNC(=N)N)C(=O)NCC(=O)N[C@@H](CC(C)C)C(N)=O)C(C)C [SM102]
GLP-1 R endocytosis [1]: rapid GLP-1 R endocytosis | cAMP signaling potency ([2]; compared to Semaglutide, agonist 30 min at 37°C, serum-free medium, HTRF, n = 5): signaling potency was increased | signaling selectivity in favor of cAMP compared to endocytosis and β-arrestin-2 recruitment ([2]; subtracted pEC50 estimates, SM102 vs Semaglutide, one-way ANOVA with Tukey's test): significant signaling selectivity in favor of cAMP | β-arrestin-2 recruitment response potency or Emax [3]: no differences in response potency or Emax | breakup time of tear film ([4]; 4-week treatment): significantly prolonged | tear secretion level vs control group ([4]; 4 weeks of treatment, phenol red cotton thread): significantly enhanced | increase in number of conjunctival goblet cells vs control mice ([4]; SM102 1 nmol/kg, 4 weeks): approximately 1 fold | increase in number of conjunctival goblet cells vs control mice ([4]; SM102 3 nmol/kg, 4 weeks): ~4 fold | tear secretion level vs Semaglutide or dulaglutide ([4]; SM102 9 nmol/kg, 4 weeks): significantly higher | increase in number of conjunctival goblet cells vs control mice ([4]; SM102 9 nmol/kg, 4 weeks): ~5 fold | phosphorylation level of ERK vs model group [4, 9]: significantly lower | phosphorylation level of JNK vs model group [4, 9]: significantly lower | phosphorylation level of p38 vs model group [4, 9]: significantly lower | concentration of MDA vs vehicle group ([4]; corneal homogenate, 4 weeks, ELISA): significantly decreased | level of IL-1β vs control mice [4, 10]: significantly reduced | level of IL-6 vs control mice [4, 10]: significantly reduced | level of TGF-β1 vs control mice [4, 10]: increased | level of TNF-α vs control mice [4, 10]: significantly reduced | SOD activity ([4]; dose range 1 ~ 9 nmol/kg, 4 weeks): dose-dependent significant increase | corneal tissue damage (H&E staining) ([4]; medium and high dose SM102, 4 weeks): significantly reversed corneal tissue damage | half-life [5]: ~47.6 h | glucose-stimulated insulin secretion, SM102 vs Semaglutide, lower doses ([6]; 1 and 10 nM, data not shown): differences were not apparent | glucose-stimulated insulin secretion (GSIS) ([6]; islets from C57BL/6 mice, 11 mM glucose, 100 nM agonist, 30 min, no difference between agonists): potentiation of GSIS | GLP-1 R binding affinity [7]: moderate increases | GLP-1 R recycling [8]: modestly reduced recycling
